This is an account of results in patent EP0578521B1, “New peptide derivatives with bradykinin-antagonistic activity, process to prepare them and pharmaceutical compositions containing them” (ADIR ET COMPAGNIE, priority 1992, dated 1996).

Read-outs that look alike come from different tables or passages of the source. Square brackets hold non-standard residues; d marks the D form. Peptide text beside a SMILES is read from it. * marks the point of attachment. Benzoyl(4-guanidino) = N=C(N)Nc1ccc(C(=O)*)cc1; Oic = O=C(O)[C@@H]1C[C@@H]2CCCC[C@@H]2N1; Hyp = O=C(O)[C@@H]1C[C@@H](O)CN1; dTic = O=C(O)[C@H]1Cc2ccccc2CN1; 2Thi = N[C@@H](Cc1cccs1)C(=O)O; Agp = N=C(N)NC[C@H](N)C(=O)O

One assay concerns Récepteur B2. It counts as cell-based, lapin. On the procedure: Exemple 44 : Mesure in vitro de l'effet des dérivés de l'invention vis à vis de la réponse contractile du muscle lisse de la veine jugulaire de lapin induite par la bradykinine
Cette étude a été réalisée selon le protocole décrit par D. REGOLI et J. BARABE (Récepteur B2-Pharmacology of Bradykinin and related kinins, Pharm. Rev., 32, 1, 1-46, 1980). Des anneaux de veine jugulaire sont suspendus dans des chambres d'organes (40 ml) contenant une solution de KREBS thermostatée à 37°C, oxygénée en permanence par un bullage de 95 % 02/5 % CO2. La force isométrique développée par les anneaux est mesurée et enregistrée. La tension de base est d'environ 2 g. Les cuves reçoivent les concentrations du dérivé de l'invention à tester (10^-8M à 10^-5M), une cuve contrôle reçoit le solvant. Une courbe concentration réponse à la bradykinine est réalisée de 10^-10M à 10^-5M avec une progression par demi-log. La puissance des antagonistes à la bradykinine est mesurée à partir des courbes log dose-effet permettant la détermination des pA2 (logarithme négatif de la concentration molaire du dérivé de l'invention qui oblige à doubler la concentration de bradykinine pour obtenir le même effet). Lors de ce test, les dérivés de l'invention ont un pA2 compris entre 9 et 10. Plus particulièrement, le pA2 du composé de l'exemple 2 est égal à 9,1 ± 0,1, celui de l'exemple 3 est égal à 9,4 ± 0,1, celui de l'exemple 5 est égal à 9,3 ± 0,1.

Assay [1] deals with oedème de la patte de rat induite par injection de carragénine. To be noted: rat, 0,1 mg/kg I.V., at time 1 hour, versus vehicle control group.
Description: L'activité anti-inflammatoire des dérivés de l'invention a été mesurée en utilisant le modèle de l'oedème de la patte de rat induite par injection de carragénine (WINTER G. A. et coll. Proc. Soc. Exp. Biol. Med., 3, 544-547, 1960). Cette étude est effectuée sur rats mâles de 180-210 g par lot de 8. Les dérivés de l'invention sont administrés par voie I.V. au temps 0 précédant immédiatement l'injection de carragénine par voie sous-cutanée dans la plante de la patte arrière droite du rat (Carragénine lambda type IV, sigma, solution à 1 %, volume injecté 0,1 ml). Le volume de la patte aux différents temps de l'expérimentation est mesurée par plethysmographie. L'inhibition de l'oedème au temps 3 heures est calculée par rapport à un lot contrôle ayant reçu le véhicule et exprimée en pourcentage d'inhibition.
[2] abbreviates: antagonism of bradykinin concentration-response curve (10^-10M to 10^-5M), rabbit jugular vein rings, compound 10^-8M to 10^-5M, 37°C.

For `N=C(N)NCCC[C@H](NC(=O)c1ccc(NC(=N)N)cc1)C(=O)N1CCC[C@H]1C(=O)N1C[C@H](O)C[C@H]1C(=O)NCC(=O)N[C@@H](Cc1cccs1)C(=O)N[C@@H](CO)C(=O)N1Cc2ccccc2C[C@@H]1C(=O)N1[C@H](C(=O)N[C@@H](CNC(=N)N)C(=O)O)C[C@@H]2CCCC[C@@H]21` [Exemple 5, Gba-Arg-Pro-Hyp-Gly-Thi-Ser-tic-Oic-Gpr-OH] ({Benzoyl(4-guanidino)}-RP[Hyp]G[2Thi]S[dTic][Oic][Agp]-OH), the pA2 in the assay with Récepteur B2 is 9,3 ± 0,1. Take “Gba-Arg-Pro-Hyp-Gly-Thi-Ser-[3,2-c]ttp-Oic-Arg [Exemple 2]”: in the assay on Récepteur B2 (setting [2]), the pA2 is 9,1 ± 0,1. Besides, in assay [1], the “inhibition de l'oedème” value was 36%.

In the case of “arg-Arg-Pro-Hyp-Gly-Thi-Ser-[3,2-c]ttp-Oic-Arg [Exemple 3]”, the pA2 in the assay with Récepteur B2 (setting [2]) is 9,4 ± 0,1. Moreover, in assay [1], the “inhibition de l'oedème” value is recorded as 36%.
